Data set [1] has as its target T1, PKCβI (Rattus norvegicus, UniProt P68403).
T1 construct: from tissue; host or cells: glomeruli of streptozotocin-diabetic male rats
Kind of data set: PKCβ1 translocation in the glomeruli of streptozotocin-diabetic rats. The format is in vivo. The settings on record: administered for 7 days after confirmation of diabetes. As for the experimental part:
(§1) FIG. 9 is a diagrammatic representation showing the suppression of PKCβ1 translocation in glucose-stimulated mesangial cells (a) and in the glomeruli of a diabetic rat (b). Mesangial cells were pre-treated with MP5 or vehicle (ethanol) for 1 hr before being incubated with 25 mM glucose for 5 days. Male rats were rendered diabetic with streptozotocin and MP5 or vehicle (ethanol) was administered for 7 days after confirmation of diabetes. The cells and glomeruli were sonicated and particulate fraction-associated PKCβ1 was determined by Western blot analysis. High glucose and diabetes increased PKCβ1 in the particulate fraction.

Data set [2] in a line: Formalin-induced pain test (hind paw licking time). It counts as in vivo. As for the experimental part: Investigations of the effects of PT2 on pain induced by phenylquinolic acid (PQ writhing) and formalin have been made. In both the PQ writhing test (FIG. 3) and the formalin algesia test (FIG. 4), PT2 administered by intraperitoneal inoculation reduced pain and compared favourably with pain reduction by aspirin (oral, 100 mg/kg). In these tests, the EPUFA was administered 30 min before the pain stimulus and effects recorded over the following 20 min.
Investigations of PT2 in the formalin-induced analgesia model looking specifically at the biphasic response have also been undertaken and are shown in Table 1. It is well documented that in this model, aspirin suppresses only pain related to the inflammatory process (15-20 mins post-administration of formalin), while morphine suppresses pain in both phases of the response (0-5 min and 15-20 min).
Compounds were administered intraperationedly (ip) 30 min prior to the administration of formalin (0.02 ml, 1% solution) via subplantar injection into the right hind paw. Reduction of the induced hind paw licking time recorded during the following 0-5 min period (Phase I response) or 15-20 min period (Phase II response) was determined. The data in Table 1 are the mean responses of 5 animals in each group.

Data set [3] concerns PKCβI. Kind of data set: PKCβ1 translocation in glucose-stimulated mesangial cells (Western blot). It counts as cell-based. The settings on record: 1 hr pre-treatment, 25 mM glucose 5 days. The protocol:
as §1
Mesangial cells are prepared as previously described (Couper et al, 1994 supra).
Four groups of cells were set up: 5.5 mM glucose+ethanol (0.1% w/v or v/v), 5.5 mM glucose+MP5 (20 μM which is effective in the studies), 25 mM glucose+ethanol and 25 mM glucose+MP5. […] Cells were pre-incubated (30 min-24 h) with MP5 before being challenged with glucose for 4 days. […] Cells are then be washed, sonicated and the amount of each PKC isozyme in the particulate fraction determined by Western blot analysis. The soluble fractions were kept for estimation of soluble PKC (non-particulate fraction-associated). […] The cells remained viable throughout the period of study as judged by the trypan blue exclusion test. […]
A general note: A western blot detects proteins with antibodies after separation by electrophoresis.

In the next data set the target is T2, PKCβII (Homo sapiens, UniProt P05771).
T2 construct: endogenous in cells; host or cells: HUVEC (and unnamed other cell-types)
T2 sequence (P05771 1-673 isoform P05771-2): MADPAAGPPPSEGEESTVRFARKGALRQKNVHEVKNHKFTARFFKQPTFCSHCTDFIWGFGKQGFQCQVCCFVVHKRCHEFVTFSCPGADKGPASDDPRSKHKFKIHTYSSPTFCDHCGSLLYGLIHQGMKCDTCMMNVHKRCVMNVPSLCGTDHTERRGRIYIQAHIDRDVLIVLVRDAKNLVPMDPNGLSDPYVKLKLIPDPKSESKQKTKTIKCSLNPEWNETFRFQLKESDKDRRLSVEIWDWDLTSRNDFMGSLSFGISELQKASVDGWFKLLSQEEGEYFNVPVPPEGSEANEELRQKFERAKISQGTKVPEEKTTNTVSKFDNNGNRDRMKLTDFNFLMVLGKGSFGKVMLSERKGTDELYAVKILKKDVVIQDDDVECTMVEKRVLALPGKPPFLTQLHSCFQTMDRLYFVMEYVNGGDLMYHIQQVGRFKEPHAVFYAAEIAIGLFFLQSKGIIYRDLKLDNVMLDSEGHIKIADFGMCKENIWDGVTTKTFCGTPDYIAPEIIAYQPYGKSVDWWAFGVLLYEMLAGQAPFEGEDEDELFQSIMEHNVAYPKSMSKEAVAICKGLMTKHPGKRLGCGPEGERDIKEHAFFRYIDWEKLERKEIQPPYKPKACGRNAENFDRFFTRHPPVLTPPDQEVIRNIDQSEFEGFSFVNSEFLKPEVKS
Briefly: PMA-stimulated PKC translocation to the particulate fraction in HUVEC and other cell-types. The format is cell-based. The protocol:
(§2) MP5 had minimal effects (<15%) on PKCε translocation and no effects on the translocation of the other PKC isozymes in Jurkat cells.
Mesangial cells express PKCα, βI, ε, δ and ζ (Koya et al, 1997 supra, Kikkawa et al, 1994 supra), and βII at lower levels (Koya et al, 1997 supra). To examine the effect of MP5 on the ability of other PKC isozymes in mesangial cells to translocate to the particulate fraction, the cells were pre-treated with MP5 before being stimulated with PMA (1-100 nM). This agent stimulated the translocation of all the classical and novel isozymes. […] The studies were extended to other isozymes. For PKCγ (expressed mainly by neuronal cells), the effect of MP5 are tested using PMA-stimulated PC12 rat pheochromocytoma cells. To assess the effect of MP5 on the activation of atypical PKC isozymes such as PKCζ NIH3T3 cells were pre-treated with MP5 before being stimulated with tumour necrosis factor ? (1000 U/ml) which stimulates PKCζ activity in these cells (Lallena et al, 1999 supra). The isozyme were immunoprecipitated (antibody from Santa Cruz) and kinase activity was determined using a PKCε pseudosubstrate peptide or myelin basic protein as a substrate (Suzuma et al, 2002 supra).

Data set [4] addresses T3, PKCβI (Homo sapiens, UniProt P05771).
T3 construct: endogenous in cells; host or cells: HUVEC (and unnamed other cell-types)
The description is as above. The format is cell-based.

A further data set has as its system HUVEC. Briefly: Agonist-enhanced neutrophil adherence to HUVEC. The format is cell-based, human. As to conditions: 20 μmol/l, 1 hr pre-treatment, TNF 4 hr. The protocol: FIG. 11 is a representation showing effect of β-oxa; β-thia and natural PUFA on TNF-enhanced neutrophil adherence to HUVEC. HUVEC were pre-treated with the fatty acids (20 μmol/l) for 60 min at 37° C. before being stimulated with TNF (125 U/200 μl medium) for 4 hr at 37° C. The cells were then co-incubated with neutrophils (5×10^5 cells/well) at 37° C. for 30 min and the degree of neutrophil adherence quantitated. The results are expressed as % of control and represent the mean±SEM of three separate experiments each performed in triplicate. * p<0.05, ***p<0.001, for significant differences between pre-treatment with fatty acid and control (one-way analysis of variance followed by the Dunnett test for multiple comparisons).
Adhesion of neutrophils, prepared by the rapid-single-step method (Ferrante et al, J. Immun. Methods 36:109-117, 1980), to HUVEC isolated from umbilical cords was carried out essentially as described (Huang et al, 1997 supra).
The magnitude of the suppressive effect of -MP3 was dependent on-pre-treatment time and concentration with significant effects observed with a pre-treatment time of 1 hr and a concentration of ≧5 μmol/l.

A short description of data set [5]: Long term in vivo tolerability of MP5. The arrangement: species or system rats. The settings on record: up to 100 mg/kg. The protocol: as §2
The ability of MP5 to inhibit renal TGFβ production and albuminuria in streptozotocin-induced diabetic Sprague-Dawley rats were investigated. MP5 is non toxic to rats given at up to 100 mg/kg chronically as determined by liver and kidney biochemical and electrolyte markers. […] Animals (130-150 g) were placed randomly in one of five groups: control, MP5-treated, diabetic, diabetic+MP5 and diabetic+MP1. Power analysis ([…], β=0.1) (expecting at least a 50% reduction and an SD of 30% of mean) indicate that 7-8 animals/group were needed. The rats were rendered diabetic using streptozotocin (65 mg/kg. I.P) and blood glucose levels were measured 48 hr later to confirm the onset of diabetes (glucose>15 mM). […] Blood glucose was measured every week. […] At the end of the MP5 treatment period, rats were sacrificed and the level of TGFβ mRNA (Kikkawa et al 1994 supra) in the glomeruli were determined by slot blot analysis (Ferrante et al, 1997 supra) and normalized by comparison with the level of GAPDH (glyceraldehyde 3-phosphate dehydrogenase) mRNA in the same sample (Ferrante et al, 1997 supra). The amount of albumin in the urine were measured by using a commercial kit (EXOCELL Inc. Philadelphia, Pa.). […]

Data set [6] in a line: Tissue distribution after oral administration. The format is in vivo.
A further data set deals with T4, PKCε (Homo sapiens, UniProt Q02156).
T4 construct: endogenous in cells; host or cells: Jurkat
T4 sequence (Q02156 whole entry): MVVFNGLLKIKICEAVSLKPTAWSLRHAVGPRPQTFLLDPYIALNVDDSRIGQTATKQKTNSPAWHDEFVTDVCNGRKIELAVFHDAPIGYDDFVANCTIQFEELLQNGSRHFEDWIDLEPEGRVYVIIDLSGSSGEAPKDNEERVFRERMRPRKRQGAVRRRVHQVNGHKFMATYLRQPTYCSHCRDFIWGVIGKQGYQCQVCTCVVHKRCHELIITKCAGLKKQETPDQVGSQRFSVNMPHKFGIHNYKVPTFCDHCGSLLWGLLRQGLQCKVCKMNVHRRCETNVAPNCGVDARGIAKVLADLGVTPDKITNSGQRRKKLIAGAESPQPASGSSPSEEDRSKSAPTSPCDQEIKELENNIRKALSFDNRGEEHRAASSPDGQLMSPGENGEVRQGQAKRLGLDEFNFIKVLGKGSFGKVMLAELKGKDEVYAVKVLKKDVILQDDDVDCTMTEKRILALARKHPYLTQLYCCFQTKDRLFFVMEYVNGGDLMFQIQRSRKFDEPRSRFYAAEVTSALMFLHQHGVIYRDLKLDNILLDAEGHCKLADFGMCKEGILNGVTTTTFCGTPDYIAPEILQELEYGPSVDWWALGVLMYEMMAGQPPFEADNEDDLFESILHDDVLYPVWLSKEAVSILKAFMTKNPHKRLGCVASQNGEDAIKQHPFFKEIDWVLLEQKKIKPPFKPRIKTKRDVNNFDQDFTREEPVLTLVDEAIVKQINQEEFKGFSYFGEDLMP
Kind of data set: PKC translocation in Jurkat cells. It counts as cell-based.
Text: as §2

A further data set concerns other PKC isozymes. Kind of data set: PKC translocation in Jurkat cells. The format is cell-based.
Text: as §2

[7] abbreviates: 100 mg/kg ip, 30 min prior to formalin, mean of 5 animals.

Entries after “also recorded” stand apart in the source; their conditions may differ.

T1 sequence (P68403 whole entry): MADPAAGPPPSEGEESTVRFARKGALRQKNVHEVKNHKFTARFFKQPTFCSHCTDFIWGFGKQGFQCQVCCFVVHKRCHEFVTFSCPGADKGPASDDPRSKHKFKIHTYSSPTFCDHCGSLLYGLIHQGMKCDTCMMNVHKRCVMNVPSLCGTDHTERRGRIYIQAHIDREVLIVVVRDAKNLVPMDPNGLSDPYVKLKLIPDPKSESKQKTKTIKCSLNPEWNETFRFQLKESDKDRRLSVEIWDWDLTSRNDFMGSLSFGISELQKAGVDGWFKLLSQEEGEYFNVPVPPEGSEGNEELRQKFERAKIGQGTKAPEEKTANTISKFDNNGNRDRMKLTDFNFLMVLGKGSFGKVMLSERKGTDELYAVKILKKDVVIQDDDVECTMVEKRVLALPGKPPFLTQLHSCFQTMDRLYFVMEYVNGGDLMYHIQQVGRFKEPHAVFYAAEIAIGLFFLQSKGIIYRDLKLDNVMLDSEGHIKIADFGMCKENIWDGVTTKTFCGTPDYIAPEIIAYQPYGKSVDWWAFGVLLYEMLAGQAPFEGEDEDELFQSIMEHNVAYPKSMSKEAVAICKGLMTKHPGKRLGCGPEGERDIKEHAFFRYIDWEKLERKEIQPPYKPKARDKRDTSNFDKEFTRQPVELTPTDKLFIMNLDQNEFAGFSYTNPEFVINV
T3 sequence (P05771 whole entry): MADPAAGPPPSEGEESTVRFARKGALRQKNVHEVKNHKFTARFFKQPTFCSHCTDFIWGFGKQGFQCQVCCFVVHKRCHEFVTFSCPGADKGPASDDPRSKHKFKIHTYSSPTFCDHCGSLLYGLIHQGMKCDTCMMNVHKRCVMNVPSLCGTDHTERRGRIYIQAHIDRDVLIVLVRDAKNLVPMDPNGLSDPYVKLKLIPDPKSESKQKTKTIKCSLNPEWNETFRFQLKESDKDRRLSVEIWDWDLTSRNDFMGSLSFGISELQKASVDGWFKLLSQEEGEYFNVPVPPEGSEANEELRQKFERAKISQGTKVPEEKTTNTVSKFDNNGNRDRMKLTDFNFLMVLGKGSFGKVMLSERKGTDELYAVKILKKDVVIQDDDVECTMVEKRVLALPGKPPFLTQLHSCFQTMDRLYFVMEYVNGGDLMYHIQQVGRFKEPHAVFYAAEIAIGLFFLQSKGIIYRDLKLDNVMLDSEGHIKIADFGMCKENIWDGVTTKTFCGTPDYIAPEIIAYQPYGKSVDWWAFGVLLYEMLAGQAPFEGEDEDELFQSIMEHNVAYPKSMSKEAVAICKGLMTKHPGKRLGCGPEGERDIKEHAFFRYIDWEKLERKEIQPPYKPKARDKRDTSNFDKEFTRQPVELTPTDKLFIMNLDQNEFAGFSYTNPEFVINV

For `CC/C=C\C/C=C\C/C=C\CCCCCCCCOCC(=O)O` [MP5, β-oxa-21:3n-3], the “Translocation of PKCβI to a particulate fraction, glomeruli of diabetic rats” value on PKCβI [1] is “prevent the translocation of PKCβI; also recorded: inhibited this effect”. Also, in data set [2] (setting [7]), the “% inhibition of pain response, Phase I (0-5 mins)” value is on record as 34% and the “% inhibition of pain response, Phase II (15-20 mins)” value is listed as 37%. In data set [2] (intraperitoneal, 30 min before pain stimulus), the “Pain reduction in formalin test” value is “much less effective in inhibiting pain”. Moreover, in the data set with PKCβI [3], the “Translocation of PKCβI to a particulate fraction, glucose-stimulated mesangial cells” value is reported as “prevent the translocation of PKCβI; also recorded: inhibited this effect”. Further, the “PMA-stimulated translocation of PKCβII to the particulate fraction” value at PKCβII is “inhibited PMA-stimulated translocation”. In addition, on PKCβI [4] (HUVEC and other cell-types), the “PMA-stimulated translocation of PKCβI to the particulate fraction” value is on record as “inhibited PMA-stimulated translocation”. For the same compound, at PKCβI [4] (HUVEC, depending on the concentrations used), the “Selectivity between PKCβI and PKCβII” value is “able to distinguish between PKCβI and PKCβII”. The “Inhibition of TNF-α-enhanced neutrophil adhesion to HUVEC” value in the data set on HUVEC is reported as “inhibited their ability to be stimulated”. Besides, in data set [5] (chronic), the “Liver and kidney function and electrolyte levels” value is “no adverse effects on liver and kidney function and electrolyte levels; also recorded: non toxic”. The “Well-being of the animals (coat appearance, activity/mobility)” value in data set [5] (up to three months) was “no visible adverse effects”. In [6], the “Presence in blood, organs and tissues after oral administration” value was “present in the blood and various organs; also recorded: taken up by tissues, including kidneys, and incorporated into phospholipids”. At PKCε, the “Effect on PKCε translocation” value is listed as less than 15%. Also, the “Effect on translocation of the other PKC isozymes” value in the data set with other PKC isozymes is “no effects”.

These data come from patent US20090215895A1, “Therapeutic and carrier molecules” (PEPLIN BIOLIPIDS PTY LTD, priority 2004, published 2009).
